Measurements published in PubChem BioAssay AID1963450 (Molecular Pharmacology Branch, DTP, NCI, 2024).

System: 556581-035-R-J1-PDC complex spheroid growth
Assay: Anticancer human tumor 556581-035-R-J1-PDC patient-derived ovarian carcinoma cell line growth inhibition [Asc]
Settings: for IC50: curve of first compound; for viability, T/C: stronger effect = lower value; active = viability on the fitted dose curve at most 10% of control; inactive = the rest
How it was run: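 Complex solid-tumor spheroids incorporating human endothelial and mesenchymal stem cells received single agents or combinations over half-log dilution ranges anchored to clinical Cmax.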

[1] = second compound 0.03 µM, first compound 0.0316 µM
[2] = second compound 0.03 µM, first compound 0.1 µM
[3] = second compound 0.03 µM, first compound 0.316 µM
[4] = second compound 0.03 µM, first compound 1 µM
[5] = second compound 0.0949 µM, first compound 0.0316 µM
[6] = second compound 0.0949 µM, first compound 0.1 µM
[7] = second compound 0.0949 µM, first compound 0.316 µM
[8] = second compound 0.0949 µM, first compound 1 µM
[9] = second compound 0.3 µM, first compound 0.0316 µM
[10] = second compound 0.3 µM, first compound 0.1 µM
[11] = second compound 0.3 µM, first compound 0.316 µM
[12] = second compound 0.3 µM, first compound 1 µM
[13] = second compound 0.949 µM, first compound 0.0316 µM
[14] = second compound 0.949 µM, first compound 0.1 µM
[15] = second compound 0.949 µM, first compound 0.316 µM
[16] = second compound 0.949 µM, first compound 1 µM
[17] = second compound 3 µM, first compound 0.0316 µM
[18] = second compound 3 µM, first compound 0.1 µM
[19] = second compound 3 µM, first compound 0.316 µM
[20] = second compound 3 µM, first compound 1 µM
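Note: spheroids exposed to agents for 7 days before viability read.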

Cn1ncnc1[C@H]1c2n[nH]c(=O)c3cc(F)cc(c23)N[C@@H]1c1ccc(F)cc1 + CNC(C)C(=O)NC1CN(S(=O)(=O)c2cccc(S(=O)(=O)N3CCC4CCC(C(=O)NC(c5ccccc5)c5ccccc5)N4C(=O)C(NC(=O)C(C)NC)C3)c2)CCC2CCC(C(=O)NC(c3ccccc3)c3ccccc3)N2C1=O
> 0.1 µM: IC50 (second compound 0.01 µM) | IC50 (second compound 0.0316 µM) | IC50 (second compound 0.1 µM) | IC50 (second compound 0.316 µM) | IC50 (second compound 1 µM)
inactive: viability, T/C (second compound 0.01 µM, first compound 0.000316 µM) 69.2% | viability, T/C (second compound 0.01 µM, first compound 0.001 µM) 69.1% | viability, T/C (second compound 0.01 µM, first compound 0.00316 µM) 80.4% | viability, T/C (second compound 0.01 µM, first compound 0.01 µM) 83.8% | viability, T/C (second compound 0.01 µM, first compound 0.0316 µM) 71.4% | viability, T/C (second compound 0.01 µM, first compound 0.1 µM) 72.9% | viability, T/C (second compound 0.0316 µM, first compound 0.000316 µM) 84.4% | viability, T/C (second compound 0.0316 µM, first compound 0.001 µM) 98.2% | viability, T/C (second compound 0.0316 µM, first compound 0.00316 µM) 79.2% | viability, T/C (second compound 0.0316 µM, first compound 0.01 µM) 77% | viability, T/C (second compound 0.0316 µM, first compound 0.0316 µM) 89.9% | viability, T/C (second compound 0.0316 µM, first compound 0.1 µM) 88.8% | viability, T/C (second compound 0.1 µM, first compound 0.000316 µM) 92.7% | viability, T/C (second compound 0.1 µM, first compound 0.001 µM) 73.7% | viability, T/C (second compound 0.1 µM, first compound 0.00316 µM) 65.5% | viability, T/C (second compound 0.1 µM, first compound 0.01 µM) 69.2% | viability, T/C (second compound 0.1 µM, first compound 0.0316 µM) 69.2% | viability, T/C (second compound 0.1 µM, first compound 0.1 µM) 62.2% | viability, T/C (second compound 0.316 µM, first compound 0.000316 µM) 76.3% | viability, T/C (second compound 0.316 µM, first compound 0.001 µM) 74% | viability, T/C (second compound 0.316 µM, first compound 0.00316 µM) 63.8% | viability, T/C (second compound 0.316 µM, first compound 0.01 µM) 74% | viability, T/C (second compound 0.316 µM, first compound 0.0316 µM) 77.4% | viability, T/C (second compound 0.316 µM, first compound 0.1 µM) 69.9% | viability, T/C (second compound 1 µM, first compound 0.000316 µM) 78.8% | viability, T/C (second compound 1 µM, first compound 0.001 µM) 77.6% | viability, T/C (second compound 1 µM, first compound 0.00316 µM) 71.1% | viability, T/C (second compound 1 µM, first compound 0.01 µM) 69.5% | viability, T/C (second compound 1 µM, first compound 0.0316 µM) 71.8% | viability, T/C (second compound 1 µM, first compound 0.1 µM) 67%

C#Cc1c(F)ccc2cc(O)cc(-c3ncc4c(N5CC6CCC(C5)N6)nc(OCC56CCCN5CC(F)C6)nc4c3F)c12 (stereo not given) + CCN1C(C(=O)NC23CCC(C(=O)O)(CC2)CC3)C(c2cccc(Cl)c2F)C2(C(=O)Nc3cc(Cl)ccc32)C12CCCCC2
inactive: viability, T/C [1] 98.9% | viability, T/C [2] 86% | viability, T/C [3] 102% | viability, T/C [4] 89.6% | viability, T/C (second compound 0.03 µM, first compound 3.16 µM) 96.7% | viability, T/C (second compound 0.03 µM, first compound 10 µM) 89.6% | viability, T/C [5] 105% | viability, T/C [6] 83.2% | viability, T/C [7] 93.9% | viability, T/C [8] 79.5% | viability, T/C (second compound 0.0949 µM, first compound 3.16 µM) 91% | viability, T/C (second compound 0.0949 µM, first compound 10 µM) 61.9% | viability, T/C [9] 80.2% | viability, T/C [10] 66.7% | viability, T/C [11] 75% | viability, T/C [12] 86.1% | viability, T/C (second compound 0.3 µM, first compound 3.16 µM) 83.3% | viability, T/C (second compound 0.3 µM, first compound 10 µM) 61.8% | viability, T/C [13] 86.6% | viability, T/C [14] 80.3% | viability, T/C [15] 85.7% | viability, T/C [16] 74.9% | viability, T/C (second compound 0.949 µM, first compound 3.16 µM) 76.3% | viability, T/C (second compound 0.949 µM, first compound 10 µM) 78.5% | viability, T/C [17] 95.8% | viability, T/C [18] 102% | viability, T/C [19] 76% | viability, T/C [20] 78% | viability, T/C (second compound 3 µM, first compound 3.16 µM) 70.1% | viability, T/C (second compound 3 µM, first compound 10 µM) 78.6%
> 10 µM: IC50 (second compound 0.03 µM) | IC50 (second compound 0.0949 µM) | IC50 (second compound 0.3 µM) | IC50 (second compound 0.949 µM) | IC50 (second compound 3 µM)

CNC(C)C(=O)NC1CN(S(=O)(=O)c2cccc(S(=O)(=O)N3CCC4CCC(C(=O)NC(c5ccccc5)c5ccccc5)N4C(=O)C(NC(=O)C(C)NC)C3)c2)CCC2CCC(C(=O)NC(c3ccccc3)c3ccccc3)N2C1=O (stereo not given) + CCN1C(C(=O)NC23CCC(C(=O)O)(CC2)CC3)C(c2cccc(Cl)c2F)C2(C(=O)Nc3cc(Cl)ccc32)C12CCCCC2
inactive: viability, T/C (second compound 0.03 µM, first compound 0.00316 µM) 94.8% | viability, T/C (second compound 0.03 µM, first compound 0.01 µM) 82.8% | viability, T/C [1] 97.9% | viability, T/C [2] 76.4% | viability, T/C [3] 61.8% | viability, T/C [4] 54.3% | viability, T/C (second compound 0.0949 µM, first compound 0.00316 µM) 88.3% | viability, T/C (second compound 0.0949 µM, first compound 0.01 µM) 98.8% | viability, T/C [5] 87% | viability, T/C [6] 76.8% | viability, T/C [7] 65.6% | viability, T/C [8] 60.5% | viability, T/C (second compound 0.3 µM, first compound 0.00316 µM) 108% | viability, T/C (second compound 0.3 µM, first compound 0.01 µM) 97.5% | viability, T/C [9] 106% | viability, T/C [10] 77.3% | viability, T/C [11] 73% | viability, T/C [12] 57.1% | viability, T/C (second compound 0.949 µM, first compound 0.00316 µM) 85.5% | viability, T/C (second compound 0.949 µM, first compound 0.01 µM) 81.2% | viability, T/C [13] 93.9% | viability, T/C [14] 66.8% | viability, T/C [15] 65.1% | viability, T/C [16] 65.5% | viability, T/C (second compound 3 µM, first compound 0.00316 µM) 105% | viability, T/C (second compound 3 µM, first compound 0.01 µM) 94.6% | viability, T/C [17] 78.7% | viability, T/C [18] 70.8% | viability, T/C [19] 63.3% | viability, T/C [20] 60.5%
> 1 µM: IC50 (second compound 0.03 µM) | IC50 (second compound 0.0949 µM) | IC50 (second compound 0.3 µM) | IC50 (second compound 0.949 µM) | IC50 (second compound 3 µM)
